Test results as given in ChEMBL document CHEMBL1156556, “Knowledge-based design of 7-azaindoles as selective B-Raf inhibitors” (Bioorg Med Chem Lett, 2008).
Calls of active or inactive are those of the source. No cut-off for these calls is given here.

Assays:
[1] = biological target: Serine/threonine-protein kinase B-raf (Homo sapiens, UniProt P15056); assay: Inhibition of B-Raf by fluorescence anisotropy binding assay
Cytochrome P450 2C9 = Cytochrome P450 2C9 (Homo sapiens, UniProt P11712); assay: Inhibition of CYP2C9; format: ADME
Cytochrome P450 2D6 = Cytochrome P450 2D6 (Homo sapiens, UniProt P10635); assay: Inhibition of CYP2D6; format: ADME
[2] = Selectivity for B-Raf over c-Met
[3] = biological target: Insulin-like growth factor 1 receptor (Homo sapiens) (UniProt P08069); assay: Inhibition of IGF1R at 30 uM
[4] = biological target: T1, Tyrosine-protein kinase ZAP-70 (Homo sapiens) (UniProt P43403); assay: Inhibition of ZAP70 at 30 uM
T1 sequence (whole entry): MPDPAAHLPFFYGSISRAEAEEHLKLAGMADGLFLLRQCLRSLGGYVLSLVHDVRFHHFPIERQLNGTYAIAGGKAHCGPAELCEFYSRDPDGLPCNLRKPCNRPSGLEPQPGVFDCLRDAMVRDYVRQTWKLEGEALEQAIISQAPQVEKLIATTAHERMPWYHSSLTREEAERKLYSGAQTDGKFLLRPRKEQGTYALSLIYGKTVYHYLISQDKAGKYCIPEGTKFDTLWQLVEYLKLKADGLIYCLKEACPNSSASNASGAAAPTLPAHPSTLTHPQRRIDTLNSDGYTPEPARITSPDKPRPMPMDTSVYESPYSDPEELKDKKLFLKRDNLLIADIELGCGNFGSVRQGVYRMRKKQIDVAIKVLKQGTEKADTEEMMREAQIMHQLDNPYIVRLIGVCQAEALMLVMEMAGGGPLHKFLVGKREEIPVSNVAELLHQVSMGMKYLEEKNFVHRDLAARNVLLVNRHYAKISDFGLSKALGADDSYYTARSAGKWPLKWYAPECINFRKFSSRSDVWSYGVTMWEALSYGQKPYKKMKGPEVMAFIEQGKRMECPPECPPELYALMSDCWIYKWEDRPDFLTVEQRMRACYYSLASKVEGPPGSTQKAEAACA

[5] = biological target: Receptor tyrosine-protein kinase erbB-4 (Homo sapiens) (UniProt Q15303); assay: Inhibition of ERBB4 at 30 uM
[6] = biological target: T2, Serine/threonine-protein kinase Sgk1 (Homo sapiens) (UniProt O00141); assay: Inhibition of SGK1 at 30 uM
T2 sequence (whole entry): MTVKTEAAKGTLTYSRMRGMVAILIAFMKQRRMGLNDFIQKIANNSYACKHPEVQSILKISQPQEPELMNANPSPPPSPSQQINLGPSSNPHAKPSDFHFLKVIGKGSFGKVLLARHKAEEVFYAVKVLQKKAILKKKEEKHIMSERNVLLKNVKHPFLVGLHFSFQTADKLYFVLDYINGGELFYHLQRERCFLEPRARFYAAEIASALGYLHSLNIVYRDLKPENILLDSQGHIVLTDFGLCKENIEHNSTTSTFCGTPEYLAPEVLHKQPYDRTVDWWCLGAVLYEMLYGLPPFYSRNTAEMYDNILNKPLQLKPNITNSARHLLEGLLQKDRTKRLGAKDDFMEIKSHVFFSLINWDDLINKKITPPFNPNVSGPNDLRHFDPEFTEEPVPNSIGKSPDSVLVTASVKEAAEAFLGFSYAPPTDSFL

[7] = biological target: Mitogen-activated protein kinase 1 (Homo sapiens) (UniProt P28482); assay: Inhibition of ERK2 at 30 uM
[8] = biological target: Tyrosine-protein kinase BTK (Homo sapiens) (UniProt Q06187); assay: Inhibition of BTK at 30 uM
[9] = biological target: Glycogen synthase kinase-3 beta (Homo sapiens) (UniProt P49841); assay: Inhibition of GSK3b at 30 uM
[10] = biological target: Tyrosine-protein kinase SYK (Homo sapiens) (UniProt P43405); assay: Inhibition of SYK at 30 uM
[11] = biological target: RAC-alpha serine/threonine-protein kinase (Homo sapiens) (UniProt P31749); assay: Inhibition of AKT1 at 30 uM
[12] = biological target: T3, Inhibitor of nuclear factor kappa-B kinase subunit beta (Homo sapiens) (UniProt O14920); assay: Inhibition of IKK2 at 30 uM
T3 sequence (whole entry): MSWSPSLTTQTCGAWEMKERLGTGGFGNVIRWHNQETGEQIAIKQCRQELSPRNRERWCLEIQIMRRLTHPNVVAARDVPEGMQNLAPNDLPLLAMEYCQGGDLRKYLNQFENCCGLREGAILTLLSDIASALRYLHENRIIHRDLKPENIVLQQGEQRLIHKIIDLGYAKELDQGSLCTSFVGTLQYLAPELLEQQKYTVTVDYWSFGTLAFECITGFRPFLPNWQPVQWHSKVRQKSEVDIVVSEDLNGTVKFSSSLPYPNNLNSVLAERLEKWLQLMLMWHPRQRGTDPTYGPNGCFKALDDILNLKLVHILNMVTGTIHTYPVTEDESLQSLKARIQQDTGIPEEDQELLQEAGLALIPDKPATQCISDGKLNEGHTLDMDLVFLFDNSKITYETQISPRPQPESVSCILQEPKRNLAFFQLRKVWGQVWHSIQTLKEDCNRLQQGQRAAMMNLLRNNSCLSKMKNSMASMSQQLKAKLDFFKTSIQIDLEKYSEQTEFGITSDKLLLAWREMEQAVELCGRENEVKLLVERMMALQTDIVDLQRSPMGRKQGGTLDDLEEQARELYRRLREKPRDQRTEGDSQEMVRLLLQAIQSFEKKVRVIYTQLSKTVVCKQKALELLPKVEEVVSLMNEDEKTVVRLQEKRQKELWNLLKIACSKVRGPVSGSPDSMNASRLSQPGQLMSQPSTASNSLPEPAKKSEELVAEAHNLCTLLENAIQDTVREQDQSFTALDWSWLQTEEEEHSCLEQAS

[13] = Selectivity for B-Raf over VEGFR2
[14] = biological target: Cyclin-dependent kinase 2 (Homo sapiens) (UniProt P24941); assay: Inhibition of CDK2 at 30 uM

Serine/threonine-protein kinase B-raf, sequence (P15056 whole entry): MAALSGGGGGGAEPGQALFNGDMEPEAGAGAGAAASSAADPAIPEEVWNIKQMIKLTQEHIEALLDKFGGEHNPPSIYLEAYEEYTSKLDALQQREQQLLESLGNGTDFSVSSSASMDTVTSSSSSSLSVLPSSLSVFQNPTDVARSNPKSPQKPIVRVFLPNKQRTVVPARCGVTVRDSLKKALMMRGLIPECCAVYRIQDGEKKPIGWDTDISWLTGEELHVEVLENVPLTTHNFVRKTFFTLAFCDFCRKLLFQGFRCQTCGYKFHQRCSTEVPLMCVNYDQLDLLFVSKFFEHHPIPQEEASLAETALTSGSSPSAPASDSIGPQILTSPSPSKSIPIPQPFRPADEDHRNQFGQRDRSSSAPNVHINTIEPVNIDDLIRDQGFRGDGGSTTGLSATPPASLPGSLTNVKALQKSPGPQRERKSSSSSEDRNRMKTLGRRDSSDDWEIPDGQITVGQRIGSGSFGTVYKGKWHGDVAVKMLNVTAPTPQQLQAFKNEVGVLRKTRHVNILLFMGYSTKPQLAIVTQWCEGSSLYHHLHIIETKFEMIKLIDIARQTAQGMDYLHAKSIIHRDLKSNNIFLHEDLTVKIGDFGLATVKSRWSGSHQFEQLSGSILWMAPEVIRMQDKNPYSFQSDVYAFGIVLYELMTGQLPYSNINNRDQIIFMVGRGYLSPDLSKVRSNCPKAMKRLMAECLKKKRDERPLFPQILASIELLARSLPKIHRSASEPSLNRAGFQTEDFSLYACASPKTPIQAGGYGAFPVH
Cytochrome P450 2C9, sequence (P11712 whole entry): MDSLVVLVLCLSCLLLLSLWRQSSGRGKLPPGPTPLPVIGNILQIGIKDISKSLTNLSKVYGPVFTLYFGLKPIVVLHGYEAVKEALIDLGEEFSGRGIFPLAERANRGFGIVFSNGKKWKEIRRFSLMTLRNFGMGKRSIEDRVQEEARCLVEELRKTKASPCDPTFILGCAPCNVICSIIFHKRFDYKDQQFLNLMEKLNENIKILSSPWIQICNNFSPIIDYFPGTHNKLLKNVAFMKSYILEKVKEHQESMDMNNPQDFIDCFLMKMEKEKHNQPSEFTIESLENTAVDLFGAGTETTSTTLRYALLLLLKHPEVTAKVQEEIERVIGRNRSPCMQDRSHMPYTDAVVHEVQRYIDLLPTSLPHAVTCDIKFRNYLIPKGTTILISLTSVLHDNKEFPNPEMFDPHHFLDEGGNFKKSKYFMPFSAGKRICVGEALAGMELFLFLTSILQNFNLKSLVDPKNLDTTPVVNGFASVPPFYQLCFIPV
Cytochrome P450 2D6, sequence (P10635 whole entry): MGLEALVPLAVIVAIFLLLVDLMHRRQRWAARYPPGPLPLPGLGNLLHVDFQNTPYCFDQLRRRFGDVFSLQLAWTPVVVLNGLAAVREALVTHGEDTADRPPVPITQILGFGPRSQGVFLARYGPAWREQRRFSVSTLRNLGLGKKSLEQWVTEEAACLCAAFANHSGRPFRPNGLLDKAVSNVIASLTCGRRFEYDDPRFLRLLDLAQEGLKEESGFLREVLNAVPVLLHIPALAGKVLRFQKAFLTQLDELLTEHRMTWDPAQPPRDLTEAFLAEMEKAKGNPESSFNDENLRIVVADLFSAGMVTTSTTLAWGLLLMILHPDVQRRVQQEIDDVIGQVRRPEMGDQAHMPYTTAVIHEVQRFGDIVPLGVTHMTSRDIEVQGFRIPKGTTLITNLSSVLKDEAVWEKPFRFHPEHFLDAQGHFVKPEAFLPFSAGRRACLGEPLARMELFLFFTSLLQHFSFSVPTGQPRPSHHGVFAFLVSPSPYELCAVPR
Receptor tyrosine-protein kinase erbB-4 (Homo sapiens), sequence (Q15303 whole entry): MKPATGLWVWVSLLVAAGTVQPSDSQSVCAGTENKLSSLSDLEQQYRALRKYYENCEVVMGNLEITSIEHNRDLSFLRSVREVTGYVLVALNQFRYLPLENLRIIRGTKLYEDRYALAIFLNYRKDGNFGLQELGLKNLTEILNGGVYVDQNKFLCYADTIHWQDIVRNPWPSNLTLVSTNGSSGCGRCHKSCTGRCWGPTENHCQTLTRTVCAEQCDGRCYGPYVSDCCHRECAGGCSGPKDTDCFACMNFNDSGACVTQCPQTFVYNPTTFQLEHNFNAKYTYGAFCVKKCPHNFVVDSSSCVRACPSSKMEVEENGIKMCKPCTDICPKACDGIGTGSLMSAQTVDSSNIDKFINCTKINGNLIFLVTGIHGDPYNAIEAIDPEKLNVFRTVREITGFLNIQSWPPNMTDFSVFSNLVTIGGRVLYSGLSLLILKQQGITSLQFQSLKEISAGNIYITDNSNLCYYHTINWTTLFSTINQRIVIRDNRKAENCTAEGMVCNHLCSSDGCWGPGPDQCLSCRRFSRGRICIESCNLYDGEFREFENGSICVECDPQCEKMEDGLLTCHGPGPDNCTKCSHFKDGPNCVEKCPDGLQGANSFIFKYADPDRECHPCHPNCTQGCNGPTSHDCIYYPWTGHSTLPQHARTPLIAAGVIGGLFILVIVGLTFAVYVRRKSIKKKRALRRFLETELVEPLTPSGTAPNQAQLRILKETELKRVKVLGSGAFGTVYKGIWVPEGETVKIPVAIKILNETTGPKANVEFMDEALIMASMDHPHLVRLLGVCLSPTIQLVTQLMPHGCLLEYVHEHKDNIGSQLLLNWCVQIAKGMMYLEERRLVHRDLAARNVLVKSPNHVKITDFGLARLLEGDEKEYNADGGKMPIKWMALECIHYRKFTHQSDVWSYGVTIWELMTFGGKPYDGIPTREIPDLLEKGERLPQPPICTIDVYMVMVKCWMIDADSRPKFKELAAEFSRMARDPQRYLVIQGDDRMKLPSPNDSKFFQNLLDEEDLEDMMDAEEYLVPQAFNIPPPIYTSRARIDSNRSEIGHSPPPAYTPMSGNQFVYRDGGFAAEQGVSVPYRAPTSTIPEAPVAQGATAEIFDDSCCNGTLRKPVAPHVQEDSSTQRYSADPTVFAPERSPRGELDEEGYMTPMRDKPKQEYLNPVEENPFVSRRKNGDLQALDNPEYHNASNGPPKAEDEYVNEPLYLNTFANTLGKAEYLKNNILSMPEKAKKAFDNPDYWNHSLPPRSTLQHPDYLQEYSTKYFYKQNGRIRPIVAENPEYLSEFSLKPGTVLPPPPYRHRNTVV
RAC-alpha serine/threonine-protein kinase (Homo sapiens), sequence (P31749 whole entry): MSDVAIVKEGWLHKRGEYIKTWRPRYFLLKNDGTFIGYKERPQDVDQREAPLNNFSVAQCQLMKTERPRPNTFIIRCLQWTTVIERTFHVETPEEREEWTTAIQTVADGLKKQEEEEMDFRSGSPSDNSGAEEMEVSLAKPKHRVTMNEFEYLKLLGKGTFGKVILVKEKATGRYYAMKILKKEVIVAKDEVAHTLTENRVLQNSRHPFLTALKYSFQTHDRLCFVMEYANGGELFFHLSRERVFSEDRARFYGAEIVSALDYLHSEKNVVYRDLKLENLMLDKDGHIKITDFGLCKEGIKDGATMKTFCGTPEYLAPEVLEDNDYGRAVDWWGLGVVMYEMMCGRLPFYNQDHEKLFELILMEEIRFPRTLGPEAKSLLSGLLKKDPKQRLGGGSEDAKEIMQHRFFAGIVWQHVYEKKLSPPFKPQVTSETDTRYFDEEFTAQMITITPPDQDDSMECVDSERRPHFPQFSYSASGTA
Insulin-like growth factor 1 receptor (Homo sapiens), sequence (P08069 31-736 limits assumed): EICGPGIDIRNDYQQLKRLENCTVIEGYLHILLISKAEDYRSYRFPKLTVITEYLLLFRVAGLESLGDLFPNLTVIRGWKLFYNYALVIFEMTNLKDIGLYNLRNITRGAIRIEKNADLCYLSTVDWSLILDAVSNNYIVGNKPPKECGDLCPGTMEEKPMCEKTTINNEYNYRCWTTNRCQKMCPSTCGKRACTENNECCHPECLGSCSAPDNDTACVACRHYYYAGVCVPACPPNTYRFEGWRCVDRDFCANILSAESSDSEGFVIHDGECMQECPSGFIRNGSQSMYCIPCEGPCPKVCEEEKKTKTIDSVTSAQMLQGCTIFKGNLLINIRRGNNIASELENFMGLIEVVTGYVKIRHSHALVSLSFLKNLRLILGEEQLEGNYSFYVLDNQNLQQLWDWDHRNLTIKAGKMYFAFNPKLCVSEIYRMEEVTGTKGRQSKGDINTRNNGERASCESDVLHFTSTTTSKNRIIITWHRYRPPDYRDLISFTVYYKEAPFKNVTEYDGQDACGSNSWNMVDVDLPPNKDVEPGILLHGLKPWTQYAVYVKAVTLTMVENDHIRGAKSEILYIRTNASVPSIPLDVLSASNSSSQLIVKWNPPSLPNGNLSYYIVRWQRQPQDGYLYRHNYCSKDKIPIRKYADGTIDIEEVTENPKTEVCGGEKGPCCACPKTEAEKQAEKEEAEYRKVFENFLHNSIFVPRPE
Insulin-like growth factor 1 receptor (Homo sapiens), sequence (P08069 741-1367 limits assumed): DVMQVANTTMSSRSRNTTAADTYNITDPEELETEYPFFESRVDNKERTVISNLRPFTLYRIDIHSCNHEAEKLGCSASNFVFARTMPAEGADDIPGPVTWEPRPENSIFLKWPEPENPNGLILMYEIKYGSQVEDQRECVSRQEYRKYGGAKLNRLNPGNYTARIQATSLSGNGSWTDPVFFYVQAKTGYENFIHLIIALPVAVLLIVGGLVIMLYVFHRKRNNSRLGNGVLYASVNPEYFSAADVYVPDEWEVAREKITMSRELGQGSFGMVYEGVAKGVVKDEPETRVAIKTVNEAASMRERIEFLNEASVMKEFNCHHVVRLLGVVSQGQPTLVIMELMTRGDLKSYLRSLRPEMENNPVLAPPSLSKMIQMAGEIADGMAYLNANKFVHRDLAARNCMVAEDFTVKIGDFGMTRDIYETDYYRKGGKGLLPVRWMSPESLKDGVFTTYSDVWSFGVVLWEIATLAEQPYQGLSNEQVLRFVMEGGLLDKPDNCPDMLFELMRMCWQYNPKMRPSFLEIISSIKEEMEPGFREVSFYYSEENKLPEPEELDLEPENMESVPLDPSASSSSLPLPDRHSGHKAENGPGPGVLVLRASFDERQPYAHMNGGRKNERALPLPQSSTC

For `CCn1cc(-c2ccnc3[nH]ccc23)c(-c2cccc(NC(=O)NC3CCCCC3)c2)n1`, the IC50 [1] was 0.0417 µM.

In the case of `CCn1cc(-c2ccnc3[nH]ccc23)c(-c2cccc(NC(=O)Nc3cccc(OC)c3)c2)n1`, the IC50 [1] is reported as 0.0021 µM, the IC50 (Cytochrome P450 2C9) is reported as 0.316 µM and the IC50 (Cytochrome P450 2D6) is reported as 0.2 µM.

`CCn1cc(-c2ccnc3[nH]ccc23)c(-c2cccc(NC(=O)Nc3c(F)cccc3F)c2)n1` gave an IC50 [1] of 0.0257 µM.

With `CCn1cc(-c2ccnc3[nH]ccc23)c(-c2cccc(NC(=O)Nc3ccc(C(F)(F)F)cc3)c2)n1` the fold change (FC) [2] was 100, the Activity [3] was “inactive” and the Activity [4] was “inactive”. The Activity [5] was “inactive”, the Activity [6] was “inactive” and the Activity [7] was “inactive”. For the same compound, the Activity [8] was “inactive”, the Activity [9] was “inactive” and the Activity [10] was “inactive”. For the same compound, the Activity [11] was “inactive”, the Activity [12] was “inactive” and the IC50 (Cytochrome P450 2C9) was 1.26 µM. For the same compound, the IC50 (Cytochrome P450 2D6) was 5.01 µM, the fold change (FC) [13] was 100 and the Activity [14] was “inactive”.

With `CCn1cc(-c2ccnc3[nH]cc(Br)c23)c(-c2cccc(NC(=O)Nc3ccccc3)c2)n1` the IC50 [1] was 0.0794 µM.

With `CCn1cc(-c2ccnc3[nH]c(C(=O)O)cc23)c(-c2cccc(NC(=O)Nc3ccccc3)c2)n1` the IC50 [1] was 0.0457 µM.

`CCOC(=O)c1cc2c(-c3cn(CC)nc3-c3cccc(NC(=O)Nc4ccccc4)c3)ccnc2[nH]1` gave an IC50 [1] of 0.0339 µM.

`CCn1cc(-c2ccnc3[nH]ccc23)c(-c2cccc(NC(=O)Nc3ccc(Cl)c(C(F)(F)F)c3)c2)n1` showed an IC50 [1] of 0.0054 µM.

Work on `CCn1cc(-c2ccnc3[nH]ccc23)c(-c2cccc(NC(=O)Nc3cc(C(F)(F)F)ccc3F)c2)n1` yielded an IC50 [1] of 0.0039 µM.
